Experimental data: paper PMC7069095, “A cell-permeable peptide-based PROTAC against the oncoprotein CREPT proficiently inhibits pancreatic cancer” (Theranostics, 2020)
Each block holds one molecule with its values, some of them ahead of it. Non-standard residues stand in square brackets, D forms with d. No end group written: not given here. *: point of attachment. FITC = O=C1OC2(c3ccc(O)cc3Oc3cc(O)ccc32)c2ccc(NC(=S)*)cc21; Hyp = O=C(O)[C@@H]1C[C@@H](O)CN1; Ahx = NCCCCCC(=O)O

Legend:
Myc-CREPT and Myc-CCT = test: Exogenous IP experiment in HEK293T cells; assay type: binding; conditions: GST-tagged CREPT ligand
Experimental: (§1) For exogenous immunoprecipitation assays, HEK293T cells were plated in 60 mm dishes and then transfected with the indicated plasmids. After 24 h, cells were harvested using RIPA buffer (50 mM Tris-HCl pH 8.0, 2 mM EDTA pH 8.0, 150 mM NaCl, 1% NP-40, 0.5% sodium deoxycholate, 0.1% SDS) with mixed protease inhibitors. Cell lysates were incubated with 2 μg of the indicated antibodies and 30 μL of protein A/G-Sepharose beads at 4 °C overnight. Beads were eluted five times with lysis buffer (50 mM Tris-HCl pH 7.6, 1 mM EDTA pH 8.0, 165 mM NaCl, 0.5% NP-40), and thereafter, a western blot assay was performed to analyze the association by using the indicated antibodies. Western blot was performed as previously reported. Anti-β-actin and anti-Flag antibodies were purchased from Sigma. Anti-Myc antibody was purchased from Santa Cruz Biotechnology. Antibody against CREPT was produced in the laboratory.

Flag-CREPT = biological target: T1, Flag-CREPT (Homo sapiens, UniProt Q9NQG5); test: GST pull-down; assay type: binding; conditions: GST-tagged proteins purified from mammalian (HEK293T) cells
T1 construct: expressed in transfected cells; host or cells: HEK293T
T1 sequence (Q9NQG5 1-326): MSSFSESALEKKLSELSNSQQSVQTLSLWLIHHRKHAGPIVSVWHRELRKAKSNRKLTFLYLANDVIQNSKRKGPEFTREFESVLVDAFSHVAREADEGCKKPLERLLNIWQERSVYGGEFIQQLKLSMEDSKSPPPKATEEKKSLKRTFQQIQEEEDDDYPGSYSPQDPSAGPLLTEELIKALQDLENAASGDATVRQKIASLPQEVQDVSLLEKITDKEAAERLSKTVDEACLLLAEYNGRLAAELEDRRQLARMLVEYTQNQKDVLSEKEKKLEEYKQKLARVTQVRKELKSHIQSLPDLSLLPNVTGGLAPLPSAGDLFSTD
Experimental: HEK293T cells were plated in 100 mm dishes and then transfected with the indicated plasmids. After 24 h, cells were harvested using RIPA buffer with mixed protease inhibitors. Cell lysates were incubated with 30 μL of GST-tagged Sepharose beads and 10 μg of purified proteins from either E. coli or HEK293T cells at 4 °C overnight. Beads were eluted five times with lysis buffer. Western blot was performed using an antibody against GST (Cell Signaling Technology) to analyze the association.

Panc-1 cells [1] = test: Flow cytometry, entry of FITC-labeled peptides into cells; assay type: cell-based; conditions: flow cytometry, FITC-labeled peptides, 10 μM, Panc-1 cells, triplicate; in comparison with PRTC, PRTC-m or PRTC-v
Experimental: To examine whether PRTC could permeate into pancreatic cancer cells, we synthesized fluorescein isothiocyanate (FITC) labeled PRTC, PRTC-m, PRTC-v, PRTC-r (PRTC without RRRRK) as well as TAT (a widely used cell penetrating peptide, as a positive control).
Figure 3 Identification of the permeability of PRTC in Panc-1 cells. (A) Entry of FITC- labeled peptides into Panc-1 cells tested by flow cytometry. FITC-TAT is the positive control. Measurements were performed in triplicate. (B) Quantification of cellular uptake of Panc-1 cells treated with different concentrations of FITC-PRTC. (C) Confocal microscope images of Panc-1 cells treated with 10 μM FITC labeled peptides. Scale bars, 10 μm. (D) Confocal microscope images of Panc-1 cells treated with different dosages of FITC-PRTC. Scale bars, 10 μm.

Panc-1 cells [2] = test: Wound healing; assay type: cell-based; conditions: 10 μM for 24 h, FBS-free DMEM
Experimental: Cells were seeded in 6-well plates. Monolayer cells were scratched after culturing to obtain at least 95% confluence. Cells were washed with PBS and maintained in FBS-free DMEM and then treated with 10 μM PRTC and PRTC-m for 24 h. Migration distance was observed by microscopy and was measured by ImageJ from three individual experiments.

[3] = biological target: T2, endogenous CREPT protein in Panc-1 cells (Homo sapiens, UniProt Q9NQG5); test: Western blot of endogenous CREPT (degradation); assay type: cell-based; conditions: 10 μM or 20 μM peptide
T2 construct: endogenous protein level of CREPT in Panc-1, AsPc-1 and MIA-PaCa-2 cells; endogenous in cells; host or cells: Panc-1, AsPc-1, MIA PaCa-2
T2 sequence (Q9NQG5 1-326): T1 sequence (Q9NQG5 1-326)
Experimental: as §1
To address whether PRTC could induce CREPT degradation, we examined the endogenous protein level of CREPT in Panc-1, AsPc-1 and MIA-PaCa-2 cells in the presence of different dosages of PRTC. […] Consistently, treatment with PRTC led to decreases in CREPT protein at different times (Figure 5B, S3A). […] To further visualize the degradation process, we stained the endogenous CREPT protein with an antibody against CREPT in the cells treated with FITC-labeled PRTC.
Figure 5 PRTC induces the ubiquitination and proteasome- dependent degradation of the endogenous CREPT protein. (A) Immunoblot of CREPT following 24 h incubation with different dosages of PRTC or PRTC-m in Panc-1 cells. (B) Immunoblot of CREPT exposed to 10 μM PRTC or PRTC-m for different times in Panc-1 cells. (C) Western blot analysis of CREPT following 24 h incubation with 10 μM PTRC in Panc-1 cells. MG132 is an inhibitor of proteasome activity. (D) Immunofluorescence visualization of Panc-1 cells after treatment with PRTC for 24 h. Cells were stained with anti-CREPT antibody. Scale bars, 20 μm.

[4] = biological target: T3, purified GST-CREPT protein (Homo sapiens, UniProt Q9NQG5); test: Microscale thermophoresis (MST); assay type: binding; conditions: FITC-labeled peptide 100 nM, gradient dilutions of purified GST-CREPT
T3 construct: made in house
T3 sequence (Q9NQG5 1-326): T1 sequence (Q9NQG5 1-326)
Experimental: FITC-labeled PRTC and PRTC-m were regarded as ligands. After a pretest, 100 nM of both PRTC and PRTC-m generated the most appropriate value of fluorescence. Gradient dilutions of purified CREPT proteins were regarded as the target. The Kd value was measured by Microscale Thermophoresis NT.115 and was analyzed by MO.AffinityAnalysis (Nano Temper, German).

CREPT protein = biological target: T4, CREPT protein (Homo sapiens, UniProt Q9NQG5); test: Thermal shift assay (TSA); assay type: binding; conditions: GST-tagged CREPT 5.33 μM, SYPRO Orange, 25 to 70 °C at 1 °C/min
T4 construct: made in house
T4 sequence (Q9NQG5 1-326): T1 sequence (Q9NQG5 1-326)
Experimental: Purified CREPT proteins were appropriately diluted in a buffer containing 50 mM Tris-HCl, pH 8.0, 150 mM NaCl. The final concentration of CREPT protein was 5.33 μM. SYPRO Orange dye was diluted into 10 μM. The PCR plates were sealed, shaken, and centrifuged after proteins and peptides were added. Thermal scanning (25 to 70 °C at 1 °C/min) was performed using a real-time PCR instrument (Bio-Rad). Melting curves were generated by Prism 7.0 based on the raw data.

[5] = Circular dichroism (CD) spectroscopy; assay type: physicochemical; conditions: 0.1 mg/mL in deionized water, room temperature
Experimental: All peptides were dissolved in the deionized water at a final concentration of 0.1 mg/mL. The CD spectra were measured by using a 1 nm bandwidth with a 1 nm step resolution from 190 to 260 nm at room temperature (Jasco spectropolarimeter, Japan). Final spectra were obtained from the average of three parallel scans after subtracting a spectrum of deionized water recorded under the same conditions. Each sample was scanned thrice and the averaged spectrum was smoothed. The helicity were calculated by CDNN 2.1 [59], [60].

Panc-1 cells [6] = test: Cell viability assay (CCK-8); assay type: cell-based; conditions: 10 μM, CCK-8, OD450, three individual experiments
Experimental: Cells were seeded into 96-well plates (1000 cells per well) and cultured for the indicated times. Cell viability was evaluated using a CCK-8 kit (Solarbio, Beijing, China). The value of OD450 was calculated by spectrophotometer and presented as the mean ± standard deviation (SD) from three individual experiments.

[7] = biological target: T5, ubiquitinated CREPT in Panc-1 cells (Homo sapiens, UniProt Q9NQG5); test: Endogenous IP of CREPT with ubiquitin (Co-IP); assay type: cell-based; conditions: 10 μM peptide for 24 h, IP: CREPT, IB: anti-ubiquitin
T5 construct: endogenous protein level of CREPT in Panc-1, AsPc-1 and MIA-PaCa-2 cells; endogenous in cells; host or cells: Panc-1, AsPc-1, MIA PaCa-2
T5 sequence (Q9NQG5 1-326): T1 sequence (Q9NQG5 1-326)
Experimental: as §1
In addition, a Co-IP experiment was performed in Panc-1 cells treated with 10 μM PRTC, PRTC-m or PRTC-v for 24 h. […] In the absence of MG132, the level of ubiquitinated CREPT was further increased by PRTC (Figure 6C, compare lane 1 and lane 2).
Figure 6 The degradation of CREPT by PRTC is dependent on its VHL ligand. (A) Immunoblot of CREPT following 24 h incubation with different dosages of PRTC or PRTC-v in Panc-1 cells. (B) Immunoblot of CREPT exposed to 10 μM PRTC or PRTC-v for different time points in Panc-1 cells. (C) Endogenous IP experiment of CREPT with ubiquitin treated with 10 μM PTRC, PTRC-m or PTRC-v in Panc-1 cells. IP: CREPT, IB: Anti-ubiquitin.

[8] = biological target: T6, purified GST-CREPT protein (microscale thermophoresis and thermal shift assay) (UniProt Q9NQG5 1-326); test: thermal shift assay; 5.33 μM purified CREPT protein in 50 mM Tris-HCl pH 8.0, 150 mM NaCl, SYPRO Orange, peptide or deionized H2O added; 25 to 70 °C at 1 °C/min; conditions: both partners purified
T6 construct: CREPT (also named RPRD1B); it may be the same as m2 or m3; also called GST-tagged CREPT; purified CREPT proteins; source: purified
T6 sequence (looked up): T1 sequence (Q9NQG5 1-326)

[9] = biological target: T6, purified GST-CREPT protein (microscale …); test: MST; 100 nM FITC-labeled peptide kept constant, gradient dilutions of purified GST-CREPT; Microscale Thermophoresis NT.115, MO.AffinityAnalysis; conditions: both partners purified

- fluorescence intensity in the cells (cell entry) (Panc-1 cells [1]): obviously decreased
Molecule: IYP (OH) AL-AHX-KDVLSEKEKKLEEYKQKLARV [PRTC-r, PRTC without RRRRK]

- CREPT protein level at different times [3]: no effect
- association with CREPT (MST) [4]: failed to associate
- effect on thermal stability of CREPT (CREPT protein): failed to alter
- secondary structure by CD spectrum [5]: disordered structure
- Helicity ([5]; 190 to 260 nm, average of three scans, calculated by CDNN 2.1): 7.9%
- ubiquitinated CREPT proteins [7]: unable to mediate the accumulation
Molecule: IYP (OH) AL-AHX-KDVPSEKEKKPEEYKQKPARV-RRRRK [PRTC-m, three leucine residues on PRTC were replaced with proline residues]
- cell movement (wound healing) (Panc-1 cells [2]): not
- cell proliferation (Panc-1 cells [6]): failed

The remaining lines, values behind:

Molecule: GST-CL: GST protein tagged with CREPT ligand (CL) (KDVLSEKEKKLEEYKQKLARV; also: GST tag, end not given here)
- binding in exogenous IP (Myc-CREPT and Myc-CCT): strongly binds
- pull down of Flag-CREPT in vitro (Flag-CREPT): able to pull down

B1: PRTC (peptide)
peptide: IY[Hyp]AL[Ahx]KDVLSEKEKKLEEYKQKLARVRRRRK
notes: VHL ligand IYP(OH)AL; the P is trans-4-hydroxy-L-proline; followed by the AHX linker; CREPT ligand (CL): leucine-zipper-like motif of CREPT (RPRD1B), lysine 266 to valine 286; transmembrane transport pentapeptide; The thermal shift assay names the peptide only as PRTC; also called cell-permeable peptide-based PROTAC against CREPT; source: synthetic peptide (ChinaPeptides Co., Ltd.), purified by …
- dTm (thermal shift) [8]: 6 °C

B2: FITC-PRTC (peptide)
peptide: {FITC-Ahx}-IY[Hyp]AL[Ahx]KDVLSEKEKKLEEYKQKLARVRRRRK
notes: VHL ligand IYP(OH)AL; the P is trans-4-hydroxy-L-proline; followed by the AHX linker; CREPT ligand (CL): leucine-zipper-like motif of CREPT (RPRD1B), lysine 266 to valine 286; transmembrane transport pentapeptide; Peptide-based PROTAC: VHL ligand, AHX linker, CREPT ligand, RRRRK; also called FITC-labeled PRTC; source: synthetic peptide (ChinaPeptides Co., Ltd.), purified by HPLC
- Kd [9]: 340 nM
